Measurements: US20080076808A1, “SKIN COMPOSITION” (MARS INCORPORATED, priority 2003, published 2008)
Like-named read-outs stand apart in the source and are kept apart here.

Experiments:
canine keratinocytes [1] = experiment: In vitro ceramide synthesis assay (14C-serine incorporation); assay type: cell-based; details: stated as 'has been shown'; FIGS. 2, 3, 7, 8
Protocol: Canine keratinocytes were obtained via explant culture of skin samples taken from healthy adult animals (4 mm biopsy). Samples are washed and dissected in cold PBS containing antibiotics. The epidermis is dissected away from the dermis and cut into 1 mm^2 pieces. The pieces of epidermis are then placed into individual wells of a 24 well collagen-coated plastic plate and briefly allowed to dry down (60 seconds). Green's medium supplemented with 10% fetal bovine serum is then added and the explants cultured for 7-10 days until keratinocytes begin growing out of the edges of the skin. The primary skin cells are now detached from the plastic and explant tissue using trypsin and moved onto a i3T3 (irradiated fibroblast) feeder layer. Cells are expanded on the feeder layer until near confluent at which time they can be moved onto plastic alone. The primary keratinocytes can be used for assays at this point or further expanded in number as required. Keratinocytes are seeded in collagen-coated 24 well plates at a density of 5×10^4 cells per well. These cells are allowed to settle overnight and then the media changed. Cells are then left for 4 days under proliferation promoting culture conditions (in the presence of bovine pituitary extract). Following the 4 days the media is changed to one that promotes differentiation and at this stage the supplement to be tested is added (see individual experiments). Following 6 days under these conditions [^14C]-Serine is added for the ceramide assay or [^14C]-Acetate added for the total lipid assay, in both cases at 0.5 microCi per well. Cells are incubated in the presence of the radioactive markers and supplement for 2 days. At the end of the incubation period cells were harvested using trypsin and washed using PBS. Lipids were subsequently extracted using Bligh-Dyer solution and then added to 4 ml of scintillation fluid. The radioactivity was counted with a liquid scintillation spectrometer. Results for the ceramide synthesis assays are seen in FIGS. 1-6. Results for total lipid synthesis assays are seen in FIGS. 7-8. […]

canine keratinocytes [2] = details: stated as 'known to'; FIG. 5; cited from earlier work

Row | Compound | epidermal ceramide synthesis (canine keratinocytes [1]) | epidermal ceramide synthesis (canine keratinocytes [2])
1 | O=C(O)[C@@H]1CCCN1 [Proline, proline] | increase | 
2 | Cc1ncc(CO)c(CO)c1O [Pyridoxine, pyridoxine] |  | increase
3 | N[C@@H](Cc1c[nH]cn1)C(=O)O [Histidine, histidine] | increase | 
4 | NC(=O)c1cccnc1 [Nicotinamide, nicotinamide] | increase | 
